# Measured values published in patent US12077503B2, “Substituted cyclic amides and their use as herbicides” (FMC CORPORATION, priority 2015, dated 2024).
# Assays:
# Assay type in all cases: in vivo
# [1] = tested on: sedge, umbrella (small-flower umbrella sedge, Cyperus difformis); test: Test B flooded paddy test; conditions: Cyperus difformis, Flood, 250 g ai/ha; scale of 0 to 100 where 0 is no effect and 100 is complete control; read-out: Sedge, Umbrella plant response rating
# Procedure, shortened: (§1)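 Compound goes directly into floodwater once pots are flooded 3 cm above soil, targeting plants at two leaves; the water depth is then held for the test duration. Plants sit 13–15 d in a greenhouse and are rated visually, 100 denoting complete control.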
# [2] = tested on: barnyardgrass (Echinochloa crus-galli); test: Test B flooded paddy test; conditions: Echinochloa crus-galli, Flood, 250 g ai/ha; scale of 0 to 100 where 0 is no effect and 100 is complete control; read-out: Barnyardgrass plant response rating
# Procedure, shortened: as §1
# [3] = tested on: ducksalad (Heteranthera limosa); test: Test B flooded paddy test; conditions: Heteranthera limosa, Flood, 250 g ai/ha; scale of 0 to 100 where 0 is no effect and 100 is complete control; read-out: Ducksalad plant response rating
# Procedure, shortened: as §1
# rice (Oryra sativa) = test: Test B flooded paddy test; conditions: Oryza sativa, Flood, 250 g ai/ha; scale of 0 to 100 where 0 is no effect and 100 is complete control; read-out: Rice plant response rating
# Procedure, shortened: as §1
# [4] = tested on: ryegrass, Italian (Italian ryegrass, Lolium multiflorum); test: Test A preemergence; conditions: Lolium multiflorum, pre-emergence, 240 h
# Procedure, shortened: (§2)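 Each rating is a visual injury score from 0 to 100 given about 10 d after treatment, judged against untreated controls kept alongside in the greenhouse. In loam soil–sand blend, seeds got a preemergence directed soil spray, while postemergence plants were 2 to 10 cm tall at spraying.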
# Kochia (Kochia scoparia) [5] = test: Test A preemergence; conditions: Bassia scoparia, pre-emergence, 240 h
# Procedure, shortened: as §2
# [6] = tested on: ragweed (common ragweed, Ambrosia elatior); test: Test A preemergence; conditions: Ambrosia artemisiifolia, pre-emergence, 240 h
# Procedure, shortened: as §2
# [7] = tested on: barnyardgrass (Echinochloa crus-galli); test: Test A preemergence; conditions: Echinochloa crus-galli, pre-emergence, 240 h
# Procedure, shortened: as §2
# [8] = tested on: giant foxtail (Setaria faberii); test: Test A preemergence; conditions: Setaria faberi, pre-emergence, 240 h
# Procedure, shortened: as §2
# [9] = tested on: pigweed (Amaranthus retroflexus); test: Test A preemergence; conditions: Amaranthus retroflexus, pre-emergence, 240 h
# corn (Zea mays) = test: Test A postemergence; conditions: Zea mays, post-emergence, 240 h, 125 g ai/ha, Postemergence; visual injury after approximately 10 d; 0 to 100 scale where 0 is no effect and 100 is complete control
# Procedure, shortened: as §2
# [10] = tested on: ryegrass, Italian (Italian ryegrass, Lolium multiflorum); test: Test A postemergence; conditions: Lolium multiflorum, post-emergence, 240 h, 125 g ai/ha, Postemergence; visual injury after approximately 10 d; 0 to 100 scale where 0 is no effect and 100 is complete control; read-out: Plant response rating, Ryegrass, Italian
# Procedure, shortened: as §2
# Kochia (Kochia scoparia) [11] = test: Test A postemergence; conditions: Bassia scoparia, post-emergence, 240 h, 125 g ai/ha, Postemergence; visual injury after approximately 10 d; 0 to 100 scale where 0 is no effect and 100 is complete control; read-out: Plant response rating, Kochia
# Procedure, shortened: as §2
# [12] = tested on: ragweed (common ragweed, Ambrosia elatior); test: Test A postemergence; conditions: Ambrosia artemisiifolia, post-emergence, 240 h, 125 g ai/ha, Postemergence; visual injury after approximately 10 d; 0 to 100 scale where 0 is no effect and 100 is complete control; read-out: Plant response rating, Ragweed
# Procedure, shortened: as §2
# [13] = tested on: barnyardgrass (Echinochloa crus-galli); test: Test A postemergence; conditions: Echinochloa crus-galli, post-emergence, 240 h, 125 g ai/ha, Postemergence; visual injury after approximately 10 d; 0 to 100 scale where 0 is no effect and 100 is complete control; read-out: Plant response rating, Barnyardgrass
# Procedure, shortened: as §2
# [14] = tested on: giant foxtail (Setaria faberii); test: Test A postemergence; conditions: Setaria faberi, post-emergence, 240 h, 125 g ai/ha, Postemergence; visual injury after approximately 10 d; 0 to 100 scale where 0 is no effect and 100 is complete control; read-out: Plant response rating, Foxtail, Giant
# Procedure, shortened: as §2
# [15] = tested on: blackgrass (Alopecurus myosuroides); test: Test A postemergence; conditions: Alopecurus myosuroides, post-emergence, 240 h, 125 g ai/ha, Postemergence; visual injury after approximately 10 d; 0 to 100 scale where 0 is no effect and 100 is complete control; read-out: Plant response rating, Blackgrass
# Procedure, shortened: as §2
# [16] = tested on: pigweed (Amaranthus retroflexus); test: Test A postemergence; conditions: Amaranthus retroflexus, post-emergence, 240 h, 125 g ai/ha, Postemergence; visual injury after approximately 10 d; 0 to 100 scale where 0 is no effect and 100 is complete control; read-out: Plant response rating, Pigweed
# Procedure, shortened: as §2
# [17] = tested on: wheat (Triticum aestivum); test: Test A postemergence; conditions: Triticum aestivum, post-emergence, 240 h, 125 g ai/ha, Postemergence; visual injury after approximately 10 d; 0 to 100 scale where 0 is no effect and 100 is complete control; read-out: Plant response rating, Wheat
# Procedure, shortened: as §2
# [18] = tested on: Galium (catchweed bedstraw, Galium aparine); test: Test A postemergence; conditions: Galium, post-emergence, 240 h, 125 g ai/ha, Postemergence; visual injury after approximately 10 d; 0 to 100 scale where 0 is no effect and 100 is complete control; read-out: Plant response rating, Galium
# Procedure, shortened: as §2
smiles,measurement,setting,value
O=C(Nc1ccccc1F)[C@H]1C(=S)NC[C@@H]1c1ccc(Cl)cc1 (racemic) [Compound 947],pest or weed control at 250 g/ha,[1],0%
same,pest or weed control at 250 g/ha,[2],0%
same,pest or weed control at 250 g/ha,[3],65%
same,pest or weed control at 250 g/ha,rice (Oryra sativa),0%
same,pest or weed control at 125 g/ha,"[4]; 125 g ai/ha, Preemergence, visual injury rating after approximately 10 d, read-out: Ryegrass, Italian plant response rating (0 to 100 scale, 0 is no effect, 100 is complete control)",0%
same,pest or weed control at 500 g/ha,"[4]; 500 g ai/ha, preemergence, visual injury rating about 10 d after treatment, 0 to 100 scale (0 no effect, 100 complete control), read-out: Ryegrass, Italian plant response rating",0%
same,pest or weed control at 125 g/ha,"Kochia (Kochia scoparia) [5]; 125 g ai/ha, Preemergence, visual injury rating after approximately 10 d, read-out: Kochia plant response rating (0 to 100 scale, 0 is no effect, 100 is complete control)",0%
same,pest or weed control at 500 g/ha,"Kochia (Kochia scoparia) [5]; 500 g ai/ha, preemergence, visual injury rating about 10 d after treatment, 0 to 100 scale (0 no effect, 100 complete control), read-out: Kochia plant response rating",40%
same,pest or weed control at 125 g/ha,"[6]; 125 g ai/ha, Preemergence, visual injury rating after approximately 10 d, read-out: Ragweed plant response rating (0 to 100 scale, 0 is no effect, 100 is complete control)",0%
same,pest or weed control at 500 g/ha,"[6]; 500 g ai/ha, preemergence, visual injury rating about 10 d after treatment, 0 to 100 scale (0 no effect, 100 complete control), read-out: Ragweed plant response rating",0%
same,pest or weed control at 125 g/ha,"[7]; 125 g ai/ha, Preemergence, visual injury rating after approximately 10 d, read-out: Barnyardgrass plant response rating (0 to 100 scale, 0 is no effect, 100 is complete control)",30%
same,pest or weed control at 500 g/ha,"[7]; 500 g ai/ha, preemergence, visual injury rating about 10 d after treatment, 0 to 100 scale (0 no effect, 100 complete control), read-out: Barnyardgrass plant response rating",60%
same,pest or weed control at 125 g/ha,"[8]; 125 g ai/ha, Preemergence, visual injury rating after approximately 10 d, read-out: Foxtail, Giant plant response rating (0 to 100 scale, 0 is no effect, 100 is complete control)",50%
same,pest or weed control at 500 g/ha,"[8]; 500 g ai/ha, preemergence, visual injury rating about 10 d after treatment, 0 to 100 scale (0 no effect, 100 complete control), read-out: Foxtail, Giant plant response rating",80%
same,pest or weed control at 125 g/ha,"[9]; 125 g ai/ha, Preemergence, visual injury rating after approximately 10 d, read-out: Pigweed plant response rating (0 to 100 scale, 0 is no effect, 100 is complete control)",0%
same,pest or weed control at 500 g/ha,"[9]; 500 g ai/ha, preemergence, visual injury rating about 10 d after treatment, 0 to 100 scale (0 no effect, 100 complete control), read-out: Pigweed plant response rating",0%
same,"Corn plant response rating (crop injury, 0 = no effect, 100 = complete kill) at 125 g/ha",corn (Zea mays),0%
same,pest or weed control at 125 g/ha,[10],0%
same,pest or weed control at 125 g/ha,Kochia (Kochia scoparia) [11],0%
same,pest or weed control at 125 g/ha,[12],0%
same,pest or weed control at 125 g/ha,[13],20%
same,pest or weed control at 125 g/ha,[14],30%
same,pest or weed control at 125 g/ha,[15],0%
same,pest or weed control at 125 g/ha,[16],0%
same,plant injury at 125 g/ha,[17],0%
same,pest or weed control at 125 g/ha,[18],0%
